These results are taken from patent US6077509A, “Peptide fragments of myelin basic protein” (Autoimmune, Inc., priority 1995, dated 2000).

For experiment [1], the system named is short term T-cell lines from peripheral blood mononuclear cells. Briefly: Proliferation assay of short term T-cell lines for reactivity to MBP, PLP and overlapping MBP peptides. It is filed as cell-based, human. Conditions: for mean frequency of T-cell lines selectively reactive to the peptide, MS vs controls (FIG. 1): MS patients compared with combined controls. On the procedure:
A rapid T-cell cloning technique was used to examine whether there were immunodominant epitopes on human MBP reactive with Class II MHC phenotypes and the frequency of such reactivity. A total of 15,824 short term T-cell lines were generated from 51 human subjects by culturing peripheral blood mononuclear cells ([…]) with purified MBP (100 μg) followed 3 days later, and then every 3-4 days, by the addition of interleukin-2 (IL-2; from ABI, Columbia, Md.) and 2 units recombinant interleukin-4 (IL-4; Genzyme, Boston, Mass.). On Day 13 of culture, an aliquot from each line was tested for reactivity to MBP using the following proliferation assay: T-cell clones (1×10^5 cells/well) were plated in triplicate and cocultured with appropriate stimuli (i.e. 100 μg whole MBP or 5% IL-2) for 72 hours at 37° C., 90% humidity, 5% CO2, in 96 well flat bottomed microtiter plates (Costar). The cells were pulsed with 2 μCi [^3 H]TdR (2 Ci/mmole, New England Nuclear, Boston, Mass.) for the last 18 hours of culture. APCs were prepared by pulsing human Epstein-Barrvirus transformed human B-cells (the virus being commercially available from ATCC) or L-cells which are mouse cells transfected with human DR2 (L-cells are commercially available from ATCC under accession No. ATCC-CCL1 and can be transfected according to the method of Wilkinson, D. et al, J. Exp. Med., 1988, 167:1442-1458 using-DNA encoding DR2 as per Wu, S. et al J. Immunol., 1987, 138:2953). B-cells or L-cells were used at 1×10^6 cells/well in complete media either in the presence or absence of 40 pM MBP or phospholipid protein (PLP) for 2 hours at 37° C., washing twice with 4° C. […]
Subjects with other central nervous system diseases had the following diagnoses: 1-3 weeks after either cerebrovascular accident (n=4), brain trauma with CNS hemorrhage (n=4), or metastatic brain tumor (n=2). […] In addition, the frequency of MBP and PLP-reactive lines was calculated separately for each subject by dividing the number of MBP-reactive lines by the total number of lines generated and the mean values +/- SEM are given. […]

The test system of another experiment is actively induced EAE. The experiment in a line: Actively induced EAE (MBP/CFA immunization), clinical score. To be noted: for suppression of EAE via IV tolerization: intravenously prior to immunization for actively induced disease (FIG. 7). The format is in vivo, Lewis rats.

Consider HHPARTAHYGSLPQKSEGRT [61-82], for which the “mean frequency of T-cell lines selectively reactive to the peptide, MS vs controls (FIG. 1)” value in experiment [1] was “Significant but less striking increases in reactivity”.

As to “FKGVDAQGTLSKIFKLGGRD [143-168, human MBP amino acid residues 143-168]”, in experiment [1], the “mean frequency of T-cell lines selectively reactive to the peptide, MS vs controls (FIG. 1)” value was “both MS and control subjects showed high frequencies”.

As to histone, the mean maximal score with actively induced EAE (IV injection before immunization with MBP/CFA, clinical scale 0-5) was 3.0±0.3.

As to “131-150: Control guinea pig MBP peptide 131-150 (DYKSKGFKGAHDAQGTLSKI; UniProt P25188 131-150, looked up, fragment)”, in the experiment on actively induced EAE, the “suppression of EAE via IV tolerization” value was “did not suppress”. In addition, the “suppression of EAE via oral tolerization” value in the experiment on actively induced EAE (orally prior to immunization for actively induced disease (FIG. 7)) is “did not suppress”.

B1: myelin basic protein (protein, UniProt P25188 1-167, looked up)
Myelin basic protein: ASQKRPSQRHGSKYLATASTMDHARHGFLPRHRDTGILDSIGRFFGSDRAAPKRGSGKDSHHAARTTHYGSLPQKSQRSQDENPVVHFFKNIVTPRTPPPSQGKGRGLSLSRFSWGAEGQKPGFGYGGRADYKSKGFKGAHDAQGTLSKIFKLGGRDSRSGSPMARR
With B1, the “suppression of EAE via IV tolerization” value with actively induced EAE is recorded as “suppression of EAE”.

B2: proteolipid protein (protein, UniProt P60201 2-277, looked up)
Myelin proteolipid protein: GLLECCARCLVGAPFASLVATGLCFFGVALFCGCGHEALTGTEKLIETYFSKNYQDYEYLINVIHAFQYVIYGTASFFFLYGALLLAEGFYTTGAVRQIFGDYKTTICGKGLSATVTGGQKGRGSRGQHQAHSLERVCHCLGKWLGHPDKFVGITYALTVVWLLVFACSAVPVYIYFNTWTTCQSIAFPSKTSASIGSLCADARMYGVLPWNAFPGKVCGSNLLSICKTAEFQMTFHLFIAAFVGAAATLVSLLTFMIAATYNFAVLKLMGRGTKF
Regarding B2, the “MEAN FREQUENCY OF Ag REACTIVE LINES” value in experiment [1] (other neurological disease (n = 10), mean +/- SEM) is listed as 0.90 ± 0.62.
